Series [1] addresses receptors (Bioprint panel). The series is described as follows: biochemical. Format: binding. The following applies: read-out: Reference Compound IC50.
For series [2], the system named is HREC. The series is described as follows: OncoPanel normal cell proliferation assay (3-day). Type of series: cell-based. As to conditions: 72 h, renal mixed epithelial, 3-day incubation; for GI50: read-out: Cell Count GI50.
Series [3] has as its system HMEC. The series can be described thus: OncoPanel normal cell proliferation assay (3-day). The following applies: Homo sapiens, 72 h, HMEC, mammary epithelial, 3-day incubation; for EC50: read-out: Cell Count EC50; for GI50: read-out: Cell Count GI50. Format: cell-based.
Series [4] relates to Wi38. The series can be described thus: OncoPanel normal cell proliferation assay (3-day). Type of series: cell-based. The following applies: Homo sapiens, WI-38, 72 h, Wi38, lung fibroblast, 3-day incubation; for EC50: read-out: Cell Count EC50; for GI50: read-out: Cell Count GI50.
Series [5] concerns CCD 841 CoN. The series is described as follows: OncoPanel normal cell proliferation assay (3-day). Format: cell-based. As to conditions: Homo sapiens, 72 h, colon epithelial, 3-day incubation; for GI50: read-out: Cell Count GI50.
Series [6] is classed as in vivo, female NOD/SCID mice. As to conditions: Study 1, IP, 35 mg/kg. As for the experimental part:
Two studies were conducted by Eurofins Panlabs Taiwan, Ltd. The purpose of Study 1 was to assess the possible adverse effects of Compound 1 alone or in combination with […] in Maximum Tolerated Dose (MTD) assay. The purpose of Study 2 is a follow-up study performed at escalating doses.
Compound 1 was dissolved in 10% Tween 20/90% PBS or 20% Tween 20/80% PBS for IP injections. Compound 1 was administrated alone or in combination with […] at a dosing volume of 10 or 20 mL/kg for each substance.
For mortality, test substance (Compound 1; 100 mg/kg) alone or in combination with […] (8.75, 17.5, or 35 mg/kg; given on the same day) was administered to mice by IP injection to evaluate the possible adverse effects in MTD assay. […]. […]
A follow-up MTD study was performed to evaluate for the adverse effects of the test substance (Compound 1) at escalating doses alone or in combination with […] (17.5 mg/kg) via IP in a group of 3 female NOD/SCID mice at 6-7 weeks of age.
For mortality, treatment with Compound 1 at escalating doses (200 mg/kg) alone and in combination with […] (17.5 mg/kg; given on the same day) were administered by IP injection to a group of 3 female NOD/SCID mice at 6-7 weeks of age. The mortality was monitored at 30 min and again at 3, 24, 48 and 72 hours after compound administrations.
For body weight, test substance (Compound 1) at escalating doses (200 mg/kg) alone or in combination with […] (17.5 mg/kg; given on the same day) were administered by IP injection to a group of 3 female NOD/SCID mice at 6-7 weeks of age. The body weight of each animal was measured and recorded daily for 3 days.
For behavioral, symptomatic i.e. neurological and autonomic signs, test substance (Compound 1; 200 mg/kg) alone or in combination with […] (17.5 mg/kg; given on the same day) were administered by IP injection to a group of 3 female NOD/SCID mice at 6-7 weeks of age. The animals were then observed for presences of acute toxic symptoms and autonomic effects for 30 min after the first dose.

The test system of series [7] is human pancreatic carcinoma MIA PaCa-2. The following applies: 80 mg/kg Q4D x 4 IP.

Like-named read-outs stand apart in the source and are kept apart here.

In the case of `CCCCCCCCCCCCCCCCOC[C@H](COP(=O)([O-])OCC[N+](C)(C)C)OC(C)=O` [Compound C16-PAF], in series [1] (PLATELET ACTIVATED FACTOR PAF (h) (agonist radioligand)), the IC50 was 3.4 nM.

With `C[C@H](NC[C@H](O)CP(=O)(O)CC1CCCCC1)c1ccc(Cl)c(Cl)c1` [CGP 54626], the IC50 in series [1] (GABA GABAB(1b) (h) (antagonist radioligand)) worked out at 2.2 nM.

With “[Nleu13]-motilin (FVPIFTYGELQRLQEKERNKGQ; Motilin norleucine at 13; UniProt P12872 26-47, looked up, variant M13L)”, the concentration for half-maximal inhibition (IC50) in series [1] (motilin(h) (agonist radioligand)) amounted to 0.89 nM.

`CN1C(=O)CN=C(c2ccccc2)c2cc(Cl)ccc21` [diazepam]: the 50% inhibitory concentration (IC50) in series [1] stood at 9.4 nM.

For `COc1ccc([C@@H]2Sc3ccccc3N(CCN(C)C)C(=O)[C@@H]2OC(C)=O)cc1` [diltiazem], the IC50 in series [1] (Ca2+ channel (L, diltiazem site) (benzothiazepines) (antagonist radioligand)) was determined as 57 nM.

For the compound `CN[C@@H]1C[C@H]2O[C@@](C)([C@@H]1OC)n1c3ccccc3c3c4c(c5c6ccccc6n2c5c31)C(=O)NC4` [Staurosporine], the GI50 in series [2] came out at 0.5 nM; in series [3], 0.91 nM; in series [4] it was 0.33 nM; in series [5], 0.19 nM. The figures for the EC50 in series [3] and in series [4] were 2.29 nM and 0.49 nM, respectively.

omega -conotoxin GVIA: in series [1], the IC50 was 0.0017 nM.

Consider alpha -bungarotoxin, for which the IC50 in series [1] amounted to 1.9 nM.

Turning to `C=C(C)[C@@H]1[C@H]2OC(=O)[C@@H]1[C@]1(O)C[C@H]3O[C@]34C(=O)O[C@H]2[C@]14C` [picrotoxinin], the IC50 in series [1] (Cl- channel (GABA-gated) (antagonist radioligand)) was 330 nM.

Regarding `C[C@]12N[C@H](Cc3ccccc31)c1ccccc12` [MK 801], in series [1] (GLUTAMATE CHANNELS PCP (antagonist radioligand)), the half-inhibitory concentration (IC50) is 9.6 nM.

glucagon: in series [1] (glucagon (h) (agonist radioligand)), the concentration for half-maximal inhibition (IC50) came out at 1 nM.

With carboplatin [reference compound], the “Response (death/test)” value in series [6] (30 min), in series [6] (3 hrs), in series [6] (Day 1), in series [6] (Day 2) and in series [6] (Day 3) was 0/3 throughout.

For `C[C@@H]1C[C@@H]([C@H](O)CC2CC(=O)NC(=O)C2)C(=O)[C@@H](C)C1` [cycloheximide, reference compound], the EC50 was determined as 117 nM in series [2] (read-out: Cell Count EC50), 3650 nM in series [3], 285 nM in series [4] and 505 nM in series [5] (read-out: Cell Count EC50). The GI50 worked out at 36.9 nM in series [2], 306 nM in series [3], 369 nM in series [4] and 588 nM in series [5]. Also, the concentration for half-maximal inhibition (IC50) in series [2] (read-out: Cell Count IC50) was determined as 593 nM; in series [3] (read-out: Cell Count IC50), 10 µM; in series [4] (read-out: Cell Count IC50) it was 871 nM; in series [5] (read-out: Cell Count IC50) it was 2770 nM.

Take NPY: in series [1] (NE[…] Y1 (h) (agonist radioligand)), the IC50 came to 0.16 nM.

Turning to `N[C@@H](CCC(=O)O)C(=O)O` [L-glutamate], in series [1] (GLUTAMATE CHANNELS AMPA (agonist radioligand)), the IC50 came out at 370 nM.

In the case of `C=C(C)[C@H]1CN[C@H](C(=O)O)[C@H]1CC(=O)O` [kainic acid], in series [1], the IC50 was 23 nM.

TNF-alpha: the half-maximal inhibitory concentration (IC50) in series [1] (CYTOKINES TNF-alpha (h) (agonist radioligand)) stood at 0.16 nM.

Take `CCCCC[C@H](O)/C=C/[C@@H]1[C@@H](C/C=C\CCCC(=O)O)[C@@H](O)C[C@H]1O` [PGF2alpha]: the IC50 in series [1] ([…] (h) (agonist radioligand)) was 3 nM.

Turning to `Nc1ccn([C@@H]2O[C@H](CO)[C@@H](O)C2(F)F)c(=O)n1` [Gemcitabine, reference compound], the “% T/C” value in series [7] (Day 1) came to 99%; in series [7] (Day 4) it was 100%; in series [7] (Day 8), 81%; in series [7] (Day 11) it was 70%; in series [7] (Day 15), 55%. The “% TGI” value in series [7] (Day 1) was 1%; in series [7] (Day 4), 0%; in series [7] (Day 8), 19%; in series [7] (Day 11) it was 30%; in series [7] (Day 15) it was 45%. The “Tumor Volume, Mean” value in series [7] (Day 1) is 89 mm3; in series [7] (Day 4), 94 mm3; in series [7] (Day 8), 107 mm3; in series [7] (Day 11) it was 139 mm3; in series [7] (Day 15), 207 mm3.

A word on the IC50: it is the point on the concentration scale where inhibition reaches its midpoint. One may read the GI50 as the concentration at which growth is held to half of that of the control. Broadly, the EC50 is the concentration at which the effect is half-maximal.

The values above are taken from patent US11331299B2, “Medicinal use of serrulatane diterpenes” (The University of Sydney, priority 2016, dated 2022).
